ChEMBL document CHEMBL5042496, “An unanticipated discovery towards novel naphthalimide corbelled aminothiazoximes as potential anti-MRSA agents and allosteric modulators for PBP2a” (Eur J Med Chem, 2022)
≈ marks a conversion by molar mass, not a printed value.

How the values were obtained:
[1] = system: Escherichia coli; assay: Antibacterial activity against Escherichia coli assessed as bacterial growth inhibition measured after 24 hrs by two fold serial dilution technique; type: functional
[2] = system: Klebsiella pneumoniae; assay: Antibacterial activity against Klebsiella pneumoniae assessed as bacterial growth inhibition measured after 24 hrs by two fold serial dilution technique; type: functional
[3] = system: Staphylococcus aureus; assay: Antibacterial activity against Staphylococcus aureus ATCC 25923 assessed as bacterial growth inhibition measured after 24 hrs by two fold serial dilution technique; type: functional
[4] = system: Pseudomonas aeruginosa; assay: Antibacterial activity against Pseudomonas aeruginosa assessed as bacterial growth inhibition measured after 24 hrs by two fold serial dilution technique; type: functional
[5] = system: Staphylococcus aureus; assay: Antibacterial activity against Staphylococcus aureus assessed as bacterial growth inhibition measured after 24 hrs by two fold serial dilution technique; type: functional
[6] = system: Acinetobacter baumannii; assay: Antibacterial activity against Acinetobacter baumannii assessed as bacterial growth inhibition measured after 24 hrs by two fold serial dilution technique; type: functional
[7] = Hemolytic activity in human RBC assessed as hemolysis incubated for 1 hr; type: toxicity, cell-based, Erythrocyte; conditions: red blood cells
[8] = system: Escherichia coli; assay: Antibacterial activity against Escherichia coli ATCC 25922 assessed as bacterial growth inhibition measured after 24 hrs by two fold serial dilution technique; type: functional
[9] = system: Staphylococcus aureus; assay: Antibacterial activity against Staphylococcus aureus ATCC 29213 assessed as bacterial growth inhibition measured after 24 hrs by two fold serial dilution technique; type: functional
[10] = system: Enterococcus faecium; assay: Antibacterial activity against Enterococcus faecium assessed as bacterial growth inhibition measured after 24 hrs by two fold serial dilution technique; type: functional
[11] = system: Staphylococcus aureus; assay: Antibacterial activity against methicillin-resistant Staphylococcus aureus assessed as bacterial growth inhibition measured after 24 hrs by two fold serial dilution technique; type: functional
[12] = system: Pseudomonas aeruginosa; assay: Antibacterial activity against Pseudomonas aeruginosa ATCC 27853 assessed as bacterial growth inhibition measured after 24 hrs by two fold serial dilution technique; type: functional

SMILES | MIC [1] [µg/mL] | MIC [2] [µg/mL] | MIC [3] [µg/mL] | MIC [4] [µg/mL] | MIC [5] [µg/mL] | MIC [6] [µg/mL] | HC50 at 1 h [7] [µg/mL] | MIC [8] [µg/mL] | MIC [9] [µg/mL] | MIC [10] [µg/mL] | MIC [11] [µg/mL] | MIC [12] [µg/mL]
CO/N=C(\C(=O)N1CCN(c2ccc3c4c(cccc24)C(=O)N(CCO)C3=O)CC1)c1csc(N)n1 | 16 (≈ 31.5 µM) | 64 (≈ 126 µM) | 16 (≈ 31.5 µM) | 16 (≈ 31.5 µM) | 64 (≈ 126 µM) | 16 (≈ 31.5 µM) | 214 | 64 (≈ 126 µM) | 32 (≈ 62.9 µM) | 16 (≈ 31.5 µM) | 2 (≈ 3.93 µM) | 64 (≈ 126 µM)
CO/N=C(\C(=O)N1CCN(c2ccc3c4c(cccc24)C(=O)N(C2CCCCC2)C3=O)CC1)c1csc(N)n1 | 64 (≈ 117 µM) | 16 (≈ 29.3 µM) | 128 (≈ 234 µM) | 128 (≈ 234 µM) | 64 (≈ 117 µM) | 8 (≈ 14.6 µM) | 257 | 64 (≈ 117 µM) | 64 (≈ 117 µM) | 16 (≈ 29.3 µM) | 16 (≈ 29.3 µM) | 64 (≈ 117 µM)
CO/N=C(\C(=O)N1CCN(c2ccc3c4c(cccc24)C(=O)N(c2nnc(C)s2)C3=O)CC1)c1csc(N)n1 | 4 (≈ 7.11 µM) | 4 (≈ 7.11 µM) | 64 (≈ 114 µM) | 32 (≈ 56.9 µM) | 64 (≈ 114 µM) | 32 (≈ 56.9 µM) | 265 | 32 (≈ 56.9 µM) | 16 (≈ 28.4 µM) | 16 (≈ 28.4 µM) | 1 (≈ 1.78 µM) | 32 (≈ 56.9 µM)
CO/N=C(\C(=O)N1CCN(c2ccc3c4c(cccc24)C(=O)N(C2CC2)C3=O)CC1)c1csc(N)n1 | 32 (≈ 63.4 µM) | 32 (≈ 63.4 µM) | 16 (≈ 31.7 µM) | 64 (≈ 127 µM) | 32 (≈ 63.4 µM) | 16 (≈ 31.7 µM) | 266 | 64 (≈ 127 µM) | 64 (≈ 127 µM) | 32 (≈ 63.4 µM) | 32 (≈ 63.4 µM) | 128 (≈ 254 µM)
CCCCCCN1C(=O)c2cccc3c(N4CCN(C(=O)/C(=N\OC)c5csc(N)n5)CC4)ccc(c23)C1=O | 32 (≈ 58.3 µM) | 64 (≈ 117 µM) | 128 (≈ 233 µM) | 64 (≈ 117 µM) | 16 (≈ 29.2 µM) | 8 (≈ 14.6 µM) | 306 | 64 (≈ 117 µM) | 64 (≈ 117 µM) | 64 (≈ 117 µM) | 32 (≈ 58.3 µM) | 64 (≈ 117 µM)
CO/N=C(\C(=O)N1CCN(c2ccc3c4c(cccc24)C(=O)N(CC(=O)O)C3=O)CC1)c1csc(N)n1 | 32 (≈ 61.2 µM) | 128 (≈ 245 µM) | 128 (≈ 245 µM) | 16 (≈ 30.6 µM) | 256 (≈ 490 µM) | 32 (≈ 61.2 µM) | 1000 | 64 (≈ 122 µM) | 64 (≈ 122 µM) | 64 (≈ 122 µM) | 64 (≈ 122 µM) | 64 (≈ 122 µM)
CO/N=C(\C(=O)N1CCN(c2ccc3c4c(cccc24)C(=O)N(Oc2ccccc2)C3=O)CC1)c1csc(N)n1 | 2 (≈ 3.59 µM) | 32 (≈ 57.5 µM) | 16 (≈ 28.7 µM) | 32 (≈ 57.5 µM) | 64 (≈ 115 µM) | 32 (≈ 57.5 µM) | 223 | 128 (≈ 230 µM) | 64 (≈ 115 µM) | 64 (≈ 115 µM) | 1 (≈ 1.8 µM) | 32 (≈ 57.5 µM)
O=C(O)c1cn(C2CC2)c2cc(N3CCNCC3)c(F)cc2c1=O [CIPROFLOXACIN] | – | 2 (≈ 6.04 µM) | 0.5 (≈ 1.51 µM) | – | 2 (≈ 6.04 µM) | 2 (≈ 6.04 µM) | – | – | 8 (≈ 24.1 µM) | 2 (≈ 6.04 µM) | 4 (≈ 12.1 µM) | –
CO/N=C(\C(=O)N1CCN(c2ccc3c4c(cccc24)C(=O)N(c2nccs2)C3=O)CC1)c1csc(N)n1 | 16 (≈ 29.2 µM) | 64 (≈ 117 µM) | 16 (≈ 29.2 µM) | 64 (≈ 117 µM) | 16 (≈ 29.2 µM) | 16 (≈ 29.2 µM) | 311 | 64 (≈ 117 µM) | 32 (≈ 58.4 µM) | 16 (≈ 29.2 µM) | 2 (≈ 3.65 µM) | 64 (≈ 117 µM)
CO/N=C(\C(=O)N1CCN(c2ccc3c4c(cccc24)C(=O)N(NCCO)C3=O)CC1)c1csc(N)n1 | 2 (≈ 3.82 µM) | 16 (≈ 30.6 µM) | 8 (≈ 15.3 µM) | 32 (≈ 61.1 µM) | 64 (≈ 122 µM) | 16 (≈ 30.6 µM) | 325 | 128 (≈ 244 µM) | 64 (≈ 122 µM) | 64 (≈ 122 µM) | 4 (≈ 7.64 µM) | 32 (≈ 61.1 µM)
CO/N=C(\C(=O)N1CCN(c2ccc3c4c(cccc24)C(=O)N(c2ncc(C)s2)C3=O)CC1)c1csc(N)n1 | 128 (≈ 228 µM) | 1 (≈ 1.78 µM) | 128 (≈ 228 µM) | 64 (≈ 114 µM) | 128 (≈ 228 µM) | 128 (≈ 228 µM) | 234 | 16 (≈ 28.5 µM) | 64 (≈ 114 µM) | 64 (≈ 114 µM) | 8 (≈ 14.2 µM) | 32 (≈ 57 µM)
CO/N=C(\C(=O)N1CCN(c2ccc3c4c(cccc24)C(=O)N(O)C3=O)CC1)c1csc(N)n1 | 32 (≈ 66.6 µM) | 16 (≈ 33.3 µM) | 32 (≈ 66.6 µM) | 64 (≈ 133 µM) | 64 (≈ 133 µM) | 2 (≈ 4.16 µM) | 277 | 64 (≈ 133 µM) | 32 (≈ 66.6 µM) | 8 (≈ 16.6 µM) | 16 (≈ 33.3 µM) | 64 (≈ 133 µM)
